Reference: patent US20110008343A1, “Method Of Reducing Tissue Loss In Pancreatic Islet Cell Transplantation” (priority 2007, published 2011)
Entries after “also recorded” stand apart in the source; their conditions may differ.

Key:
[1] = system: human islets; experiment: Binding of C3b/iC3b to human islets incubated in AB0-compatible hirudin-treated plasma (COPAS, confocal microscopy); type: cell-based
Procedure: (§1) Complex object parametric analyzer and sorter (COPAS) analysis: The fluorescence-stained islets were analyzed using a complex object parametric analyzer and sorter (COPAS; Union Biometrica, Somerville, Mass.), which is a large-particle-based flow cytometry instrument. One thousand islets were collected using a 488/514 multi-line laser, and positive cells were sorted out for further analysis by confocal microscopy. The COPAS flow cytometry data were analyzed using CellQuest™ Pro software (BD Biosciences Immunocytometry Systems). Data are reported as mean fluorescent intensity (MFI).
Confocal microscopy: Stained islets were contained in a drop of PBS in a small Petri dish and protected from light before examination in the confocal microscope (Zeiss 510 Meta confocal, Carl Zeiss, Jena, Germany). Examination of the stained islets was performed using the 488-nm laser at 10× magnification. […]
FITC-labeled antibodies recognizing the following proteins were diluted and used according to the manufacturer's recommendations: Clq (AbCam, Cambridge, UK), C3c (for detection of C3b and iC3b), C4, C9, mannose-binding lectin (MBL), IgG, and IgM (DakoCytomation, Glostrup, Denmark). […] After washing, the islets were treated with 1% formaldehyde (Apoteket, Gothenburg, Sweden) and held on ice until analyzed by COPAS and confocal microscopy.

[2] = system: C3a and sC5b-9; experiment: C3a and sC5b-9 generation in supernatants of plasma-incubated human islets (ELISA); type: cell-based
Procedure: (§2) Analysis of islets by COPAS and confocal microscopy: Approximately 5000 islets were added to 200 μl of human AB0-compatible hirudin-plasma or whole blood in heparinized test tubes. In some experiments, AB0-compatible hirudin-treated plasma was pre-incubated with or without 10 μM Ac-ICV(1MeW)[…]-NH2 (SEQ ID NO: 4; Katragadda et al., (2006) J Med Chem 49:4616-4622), a potent compstatin analog, for 15 minutes at 37° C. before the islets were added. The mixture of islets and plasma was incubated, with gentle shaking, at 37° C. for up to 30 minutes.
(§3) After centrifugation and addition of 10 mM EDTA (final concentration), the supernatants were stored at −70° C. The remaining islets were washed twice in cold PBS as described above. […]
C3a: Plasma was diluted 1/1000 in working buffer and analyzed as described previously (Enkdahl et al., 1992, Scand J Immunol 35: […]). […] Bound C3a was detected with biotinylated rabbit anti-C3a diluted 1/150, followed by HRP-conjugated streptavidin (Amersham, Little Chalfort, UK), diluted 1/500. […]
sC5b-9: Plasma was analyzed using a modification of the EIA described by Mollnes et al., 1985, Scand J Immunol 22: 197-202. Plasma diluted 1/5 was added to microtiter plates coated with anti-neoC9 monoclonal antibody MCaE11. sC5b-9 was detected with a polyclonal anti-C5 antibody diluted 1/500 (Dako A/S, Denmark), followed by HRP-conjugated anti-rabbit Ig diluted 1/500 (Dako). […]

[3] = system: human islets; experiment: Lysis of islet cells, PI staining analysed by COPAS; type: cell-based; settings: AB0-compatible plasma, 37° C., 30 minutes, 10 μM compstatin
Procedure: as §1, §2, §3

[4] = system: human islets; experiment: C-peptide release from human islets in AB0-compatible plasma (ELISA); type: cell-based; settings: 30 minutes at 37° C., 10 μM compstatin
Procedure: as §2
After centrifugation and addition of 10 mM EDTA (final concentration), the supernatants were stored at −70° C. The remaining islets were washed twice in cold PBS as described above. In order to visualize necrotic cells, propidium iodide (PI) was added to the islets 5 minutes before COPAS analysis. Islets that had not been incubated in plasma were used as controls. The islets were also examined by confocal microscopy.
C-peptide: Plasma was diluted 1/200 and analyzed using a C-peptide ELISA (Mercodia, Uppsala, Sweden).

[5] = system: porcine islets; experiment: Binding of C3b/iC3b to porcine islets incubated in human hirudin-treated plasma; type: cell-based, pig; settings: compstatin 10 μM
Procedure: Treatment of porcine islets with human plasma: Approximately 1000 pig islets/40 μL of plasma (typically 5000 islets in 200 μL) were incubated in human hirudin-treated plasma in heparinized test tubes. Five different islet preparations and five different plasma preparations were used in these experiments. In some experiments, hirudin-treated plasma was preincubated with 10 μM (final concentration) of the potent compstatin analog, Ac-ICV(1MeW)[…]-NH2 (SEQ ID NO: 4; Katragadda et al., (2006) J Med. Chem. 49 (15): 4616), for 15 minutes at 37° C. before the islets were added. The mixture of islets and plasma was then incubated, with gentle shaking, at 37° C. for up to 30 min. […]
For all immunostaining experiments, the islets were incubated, while gently rotating on ice, for 30 minutes in the presence of an individual antibody. After being washed with PBS, the islets were treated with 1% formaldehyde (Apoteket, Gothenburg, Sweden) and kept on ice until analyzed.
Complex object parametric analyzer and sorter (COPAS) analysis: The fluorescence-stained islets were analyzed using a complex object parametric analyzer and sorter (COPAS; Union Biometrica, Somerville, Mass.), which is a large particle-based flow cytometry instrument previously used for islet analysis (Fernandez et al., (2005) Transplantation 80 (6): 729). […]

[6] = system: complement activation; experiment: Complement inhibition assay in 10% human serum (bound C3 fragments in microtiter wells); type: biochemical
Procedure: Complement inhibition assay: One hundred microliters of 10% human serum (v/v), diluted in veronal buffer with 1 mM Ca^2+, 0.3 mM Mg^2+, 1% (w/v) BSA, and 0.05% (v/v) Tween 20, was incubated in the presence of serially diluted LMW-DS and/or compstatin in wells of microtiter plates for 30 minutes at 37° C. The wells were then washed with PBS containing 0.05% (v/v) Tween 20, and the bound C3 fragments were detected using […], of HRP-conjugated anti-C3c (Dako AS, Glostrup, Denmark).

[7] = Blood cell counts, liver and renal function in monkeys transplanted with porcine islets; type: in vivo, Cynomolgus monkeys (Macaca fascicularis); settings: 24 hours after islet transplantation; in U/L (unit assumed)
[8] = Plasma APTT and LMW-DS concentration in transplanted monkeys; type: in vivo, Cynomolgus monkeys (Macaca fascicularis)
Procedure: Blood samples: […] […] Analyses of blood and plasma samples: Activated Partial Thromboplastin Time (APTT) measurements were performed as previously described (Johansson et al., (2006) Am J. Transplant. 6 (2): 305).

[9] = system: porcine islet grafts; experiment: Histological evaluation of grafted pig islets 24 h after intraportal transplantation
[10] = system: IBMIR
Procedure: Blood samples: All blood samples from monkeys were drawn from a femoral vein catheter at 0, 20, and 40 min and at 1, 3 and 24 h after transplantation. Blood was drawn from healthy human blood donors into 7-mL tubes containing […] of hirudin, a specific inhibitor of thrombin (Refludan; Pharmion Ltd, Cambridge, UK). To obtain plasma, the samples were centrifuged at 4500×g for 5 min. If not immediately analyzed for activated partial thromboplastin time (APTT), the samples were stored at −70° C.
Platelet counts and differential leukocyte counts were obtained using a Coulter ACT-diff analyzer (Beckman Coulter, Miami, Fla.) and EDTA-treated blood. Plasma levels of thrombin-antithrombin (TAT) were quantified using commercially available EIA kits (TAT, Behringswerke, Marburg, Germany). C3a generation was measured in plasma according to the method of Nilsson Ekdahl et al. ((1992) Scand J. Immunol. 35 (1): 85), and sC5b-9 was analyzed using a modification of the enzyme immunoassay described by Nilsson Ekdahl et al. ((1992) Scand J. Immunol. 35 (1): 85) and Mollnes et al. ((1995) Artif Organs 19 (9): 909).

[11] = system: porcine islet grafts; experiment: Immunohistochemical staining of grafted pig islets 24 h after intraportal transplantation
[12] = both treated monkeys compared to the controls

Ac-ICV(1MeW)QDWGAHRCT-NH2 [compstatin]
C3b/iC3b binding by confocal microscopy ([1]; human islets in plasma, 5 and 30 minutes): totally prevented | binding of C3b/iC3b to the islets ([1]; human islets, AB0-compatible plasma, compstatin 10 μM, COPAS): significantly reduced; also recorded: abolished | generation of fluid-phase complement activation products (C3a, sC5b-9) ([2]; human islets, AB0-compatible plasma, compstatin 10 μM): abrogated | PI staining (lysis of islet cells) [3]: totally abrogated | release of C-peptide [4]: totally inhibited | binding of C3b/iC3b to the islets [5]: significantly reduced | inhibition of complement activation ([6]; compstatin 5 μM): total inhibition | inhibition of complement activation ([6]; compstatin above 0.5 μM): gradually inhibited | inhibition of complement activation ([6]; compstatin below 0.5 μM): no effect

Heparin
ALT [7]: 116.8±47.7 | AST [7]: 288.0±130.4 | APTT ([8]; heparin-treated monkeys, throughout the whole study period): 25 to 40 s (s) | completely preserved islets (score 0 in all categories) ([9]; control monkey M-10): 22%

Low molecular weight dextran sulfate [LMW-DS]
APTT ([8]; LMW-DS-treated monkeys, 15 minutes after islet infusion): around 100 s | APTT ([8]; monkey M-5, after 24 hours): 101 s | APTT ([8]; monkey M-7, after 24 hours): 66 s | APTT ([8]; monkey M-9, after 24 hours): 107 s | increase of coagulation marker TAT ([10]; LMW-DS-treated monkeys vs heparin controls): effectively inhibited | complement activation parameter C3a [10, 12]: suppressed | complement activation parameter sC5b-9 [10, 12]: suppressed | TAT ([10]; monkey M-5): totally suppressed | inhibition of complement activation ([6]; LMW-DS above 100 mg/L, absence of compstatin): more pronounced | inhibition of complement activation ([6]; LMW-DS between 10 and 100 mg/L, absence of compstatin): only marginally | histology of the transplanted grafts ([9]; 24 h after transplantation, semiquantitative scoring): well kept | completely preserved islets (score 0 in all categories) ([9]; monkey M-6 as printed): 37.2% | completely preserved islets (score 0 in all categories) ([9]; monkey M-9): 44% | deposition of C3 fragment and C9 on the surface of the islets ([11]; 24 h grafts): no clear inhibition | CD3+ T cell infiltration ([11]; vs controls M8 and M10): effectively suppressed | CD68+ macrophages in grafts ([11]; vs heparin controls, p=0.002): abrogated | neutrophil elastase positive PMNs in grafts ([11]; vs heparin controls, p=0.04): abrogated | CD41+ platelets in grafts ([11]; vs heparin controls, p=0.056): abrogated

hirudin
generation of C3a and sC5b-9 ([2]; islets in whole blood anticoagulated with hirudin, n=4): no effect
